Test results: patent publication US12091426B2, “Bifunctional degraders of hematopoietic progenitor kinase and therapeutic uses thereof” (Nurix Therapeutics, Inc., priority 2021, dated 2024)

Target: T1, HPK1 (Homo sapiens, UniProt Q92918)
T1 construct: A HiBiT tag was introduced by CRISPR on the N terminus of HPK1 in Jurkat cells; host or cells: Jurkat cells (ATCC TIB-152), monoclonal line with CRISPR knock-in of HiBiT at the endogenous HPK1 locus
Assay: HPK1 Cellular HiBit Degradation Assay
Type: cell-based
Conditions: HiBiT HPK1 Jurkat cells, 24 hrs; for DC50: concentration at which 50% of HPK1 was remaining, read-out: DC50 Category; for Dmax: Jurkat, maximum degradation vs DMSO vehicle control, read-out: Dmax Category
How it was run: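 Jurkat cells with CRISPR N-terminal HiBiT-tagged endogenous HPK1 treated 24 h at 37 °C with 11-point, 3.16-fold dilutions (10 uM to 0.1 nM final). HiBiT lytic luminescence gives % HPK1 remaining versus DMSO, with parental cells as background. Four-parameter fit yields DC50; Dmax = 100 minus lowest % remaining.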

T1 sequence (Q92918 whole entry): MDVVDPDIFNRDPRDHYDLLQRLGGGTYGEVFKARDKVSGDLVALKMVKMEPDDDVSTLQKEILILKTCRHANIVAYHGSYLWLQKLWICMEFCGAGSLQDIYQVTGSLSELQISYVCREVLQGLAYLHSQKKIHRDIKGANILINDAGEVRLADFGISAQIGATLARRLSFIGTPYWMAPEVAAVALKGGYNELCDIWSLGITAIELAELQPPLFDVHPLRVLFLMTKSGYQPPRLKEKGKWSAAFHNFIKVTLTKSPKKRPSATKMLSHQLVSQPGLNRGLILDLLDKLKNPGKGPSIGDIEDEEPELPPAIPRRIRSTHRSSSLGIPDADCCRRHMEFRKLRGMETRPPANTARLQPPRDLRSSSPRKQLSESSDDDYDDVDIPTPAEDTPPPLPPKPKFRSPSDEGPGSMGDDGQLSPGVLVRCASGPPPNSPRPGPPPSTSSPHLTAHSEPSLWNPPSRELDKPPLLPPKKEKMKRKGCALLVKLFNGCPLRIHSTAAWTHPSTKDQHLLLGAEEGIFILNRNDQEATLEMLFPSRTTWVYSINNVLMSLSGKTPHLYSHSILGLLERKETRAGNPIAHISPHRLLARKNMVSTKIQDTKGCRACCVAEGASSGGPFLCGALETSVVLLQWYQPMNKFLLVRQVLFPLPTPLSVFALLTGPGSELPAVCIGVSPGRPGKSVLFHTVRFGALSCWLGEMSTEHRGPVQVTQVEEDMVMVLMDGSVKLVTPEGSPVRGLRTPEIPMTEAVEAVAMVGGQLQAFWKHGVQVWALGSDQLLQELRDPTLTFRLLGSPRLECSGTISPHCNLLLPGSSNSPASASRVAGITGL

Row | DC50 [nM] | Dmax [%] | Structure (SMILES)
1 | 100 to 500 | 70 to 85 | CC(C)n1cnc2cc(-c3ccc4c(c3)N([C@H]3C[C@@H](N5CCCCC5)C3)C(=O)C43CCN(C(=O)[C@]4(C)CCN(C(=O)C5CCN(c6ccc(C7CCC(=O)NC7=O)cn6)CC5)C4)CC3)nc(NC3CC3)c21 (mixture of isomers) [Example 186, (3RS)-3-(6-{4-[(3R)-3-({6-[4-(cyclopropylamino)-3-(propan-2-yl)-3H-imidazo[4,5-c]pyridin-6-yl]-2-oxo-1-[(1S,3S)-3-(piperidin-1-yl)cyclobutyl]-1,2-dihydrospiro[indole-3,4′-piperidin]-1′-yl}carbonyl)-3-methylpyrrolidine-1-carbonyl]piperidin-1-yl}pyridin-3-yl)piperidine-2,6-dione]
2 | < 100 | 50 to 70 | CC(C)n1cnc2cc(-c3ccc4c(c3)N([C@H]3C[C@@H](N5CCCCC5)C3)C(=O)C43CCN(C(=O)[C@H]4CC[C@H](C(=O)N5CCC(Nc6ccc(C7CCC(=O)NC7=O)cn6)CC5)CC4)CC3)nc(Nc3ccncc3F)c21 (mixture of isomers) [Example 27]

Second part, the compound before the results:

Row | Structure (SMILES) | DC50 [nM] | Dmax [%]
3 | Cc1cc(F)c(Nc2nc(-c3ccc4c(c3)N([C@H]3C[C@@H](N5CCCCC5)C3)C(=O)C43CCN(C(=O)C4CCN(C(=O)C5CCN(c6ccc(C7CCC(=O)NC7=O)cn6)CC5)CC4)CC3)cc3ncn(C(C)C)c23)cc1C(=O)NC(C)C (mixture of isomers) [Example 72, 5-[(6-{1′-[1-(1-{5-[(3RS)-2,6-dioxopiperidin-3-yl]pyridin-2-yl}piperidine-4-carbonyl)piperidine-4-carbonyl]-2-oxo-1-[(1S,3S)-3-(piperidin-1-yl)cyclobutyl]-1,2-dihydrospiro[indole-3,4′-piperidin]-6-yl}-3-(propan-2-yl)-3H-imidazo[4,5-c]pyridin-4-yl)amino]-4-fluoro-2-methyl-N-(propan-2-yl)benzamide] | 100 to 500 | 70 to 85
4 | CC(C)n1cnc2cc(-c3ccc4c(c3)N([C@H]3C[C@@H](N5CCCCC5)C3)C(=O)C43CCN(C(=O)C4(C)CCN(C(=O)C5CCN(c6ccc(C7CCC(=O)NC7=O)cn6)CC5)CC4)CC3)nc(N[C@H]3C[C@H](C#N)C3)c21 (stereo partly drawn) [Example 176, (1R,3R)-3-({6-[1′-(1-{1-[5-(2,6-dioxopiperidin-3-yl)pyridin-2-yl]piperidine-4-carbonyl}-4-methylpiperidine-4-carbonyl)-2-oxo-1-[(1S,3S)-3-(piperidin-1-yl)cyclobutyl]-1,2-dihydrospiro[indole-3,4′-piperidin]-6-yl]-3-(propan-2-yl)-3H-imidazo[4,5-c]pyridin-4-yl}amino)cyclobutane-1-carbonitrile] | 100 to 500 | 70 to 85
5 | CC(C)n1cnc2cc(-c3ccc4c(c3)N([C@H]3C[C@@H](N5CCCCC5)C3)C(=O)C43CCN(C(=O)C4CN(C(=O)C5CCN(c6ccc(C7CCC(=O)NC7=O)cn6)CC5)CCC4(F)F)CC3)nc(NC3CC3)c21 (mixture of isomers) [Example 285, (3RS)-3-(6-{4-[3-({6-[4-(cyclopropylamino)-3-(propan-2-yl)-3H-imidazo[4,5-c]pyridin-6-yl]-2-oxo-1-[(1S,3S)-3-(piperidin-1-yl)cyclobutyl]-1,2-dihydrospiro[indole-3,4′-piperidin]-1′-yl}carbonyl)-4,4-Difluoropiperidine-1-carbonyl]piperidin-1-yl}pyridin-3-yl)piperidine-2,6-dione] | 100 to 500 | 50 to 70
6 | CC1CN(C(=O)C2CCN(c3ccc(C4CCC(=O)NC4=O)cn3)CC2)CCC1C(=O)N1CCC2(CC1)C(=O)N([C@H]1C[C@@H](N3CCCCC3)C1)c1cc(-c3cc4ncn(C(C)C)c4c(NC4CC4)n3)ccc12 (mixture of isomers) [Example 253, (3RS)-3-(6-{4-[4-({6-[4-(cyclopropylamino)-3-(propan-2-yl)-3H-imidazo[4,5-c]pyridin-6-yl]-2-oxo-1-[(1S,3S)-3-(piperidin-1-yl)cyclobutyl]-1,2-dihydrospiro[indole-3,4′-piperidin]-1′-yl}carbonyl)-3-methylpiperidine-1-carbonyl]piperidin-1-yl}pyridin-3-yl)piperidine-2,6-dione] | < 100 | 70 to 85
